Measured values reported in PubChem BioAssay (NCI).
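Protocol summary: plate cells (96-well), add compound at 5 concentrations, incubate 48 h, interpolate endpoints linearly. GI50 = concentration required for 50% inhibition of growth. Definition used: TGI = concentration required for complete inhibition of growth.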

Assays:
Experiment in all cases: NCI-60 cell line screen, 48 h
[1] = test system: EKVX NSCLC
[2] = test system: MOLT-4 leukemia
[3] = test system: SF-539 CNS
[4] = test system: SK-MEL-28 melanoma
[5] = test system: SK-OV-3 ovarian
[6] = test system: SR leukemia
[7] = test system: UO-31 renal
[8] = test system: HT29 colon
[9] = test system: MDA-MB-231 breast
[10] = test system: SNB-19 CNS

SMILES	TGI [1] [µM]	TGI [2] [µM]	TGI [3] [µM]	TGI [4] [µM]	TGI [5] [µM]	TGI [6] [µM]	TGI [7] [µM]	GI50 [1] [µM]	GI50 [8] [µM]	TGI [8] [µM]	GI50 [9] [µM]	TGI [9] [µM]	GI50 [2] [µM]	GI50 [3] [µM]	GI50 [4] [µM]	GI50 [5] [µM]	GI50 [10] [µM]	TGI [10] [µM]	GI50 [7] [µM]	GI50 [6] [µM]
COC(=O)CC(NC(=O)OCc1ccccc1)C(C(C)=O)C(=O)OCc1ccccc1 (stereo not drawn)	> 31.6	> 31.6	> 31.6	> 31.6	> 31.6	> 100	> 31.6	–	–	–	–	–	–	–	–	–	–	–	–	–
CCSCC1CC(O)(c2ccccc2)CC(c2ccc(F)cc2)O1 (stereo not drawn)	6.04	4.14	3.84	4.44	7.39	–	5.1	2.13	1.73	3.46	1.98	4.39	1.66	1.94	2.15	2.62	2.63	9.36	1.4	–
C[C@@H](NC1CCCC[C@H]1O)c1ccccc1 (stereo partly drawn)	> 100	> 100	> 100	> 100	> 100	–	> 100	–	–	> 100	–	–	–	–	–	–	–	> 100	–	–
Cc1ccc(S(=O)(=O)OCCn2cnc3nc(NC(=O)c4ccccc4)[nH]c(=O)c32)cc1	> 100	–	> 100	> 100	> 100	> 100	> 100	–	–	> 100	–	–	–	–	–	–	–	> 100	–	–
COC(=O)CCC(NC(=S)N/N=C(\C)c1cnc2ccccc2n1)C(=O)OC (stereo not drawn)	> 100	59.4	> 100	> 100	> 100	42.8	> 100	–	–	31.3	–	–	–	–	–	–	–	> 100	–	–
COc1ccc(C2=N[C@@H](Cc3ccccc3)C(=O)Nc3ccsc32)cc1	–	19.3	9.84	24.5	17.3	11.7	34.6	–	4.04	13.4	11.4	29.1	3.98	2.75	9.66	4.56	9.93	58.3	8.7	2.63
C/C(=C1/N=C(c2cc([N+](=O)[O-])ccc2Cl)N(c2cccc(C)c2)C1=O)c1cc2ccccc2oc1=O	> 100	> 100	–	> 100	> 100	> 100	> 100	–	–	> 100	–	–	–	–	–	–	–	> 100	–	–
N#CCCN(c1ccc(C=Nc2ccccc2)cc1)S(=O)(=O)c1ccccc1	> 100	> 100	> 100	> 100	> 100	> 100	> 100	–	–	> 100	–	–	–	–	–	–	–	> 100	–	–
Cn1cc(C(=O)c2ccccc2)c2ccccc2c1=O	> 100	> 100	> 100	> 100	> 100	> 100	–	–	–	> 100	–	–	–	–	–	–	–	–	–	–
CN1c2ccccc2N(C(=O)c2ccc([N+](=O)[O-])cc2)C(CC(=O)O)c2cccn21 (stereo not drawn)	> 100	> 100	> 100	> 100	> 100	–	> 100	–	–	> 100	–	–	–	–	–	–	–	> 100	–	–
Nc1ncnc2c1ncn2[C@]1(CO)C=C(CO)C(O)C1O (stereo partly drawn)	–	> 100	–	> 100	> 100	> 100	–	–	–	> 100	–	–	–	–	–	–	–	> 100	–	–
Cc1nc2ccc(Nc3nc(Cl)nc(N4CCOCC4)n3)cc2n1Cc1ccccc1	–	–	47.6	3.29	> 100	> 100	> 100	–	–	–	2.22	9.44	–	14.2	1.75	3.66	18.2	> 100	8.89	2.83
COC(=O)C(C(=O)C(=O)Nc1c(C)cccc1C)c1cnc2ccccc2n1 (stereo not drawn)	> 100	> 100	–	> 100	> 100	> 100	> 100	–	–	> 100	–	–	–	–	–	–	–	> 100	–	–
CC(=O)OCC1OC(n2cc(F)c(=O)[nH]c2=O)C(NC(=O)N(CCCl)N=O)C(OC(C)=O)C1OC(C)=O (stereo not drawn)	–	> 100	> 100	> 100	> 100	> 100	> 100	–	–	> 100	–	–	–	–	–	–	–	> 100	–	–
Cn1c2c(c3ccccc31)CCN(CCCCN1CCCCC1)C2=O	> 100	> 100	> 100	> 100	> 100	–	> 100	–	–	> 100	–	–	–	–	–	–	–	> 100	–	–
CN1C(=O)CCC1(O)C1C=CC=CC1 (stereo not drawn)	–	> 100	> 100	> 100	> 100	> 100	> 100	–	–	> 100	–	–	–	–	–	–	–	> 100	–	–
c1cc(NNc2cccc(-c3nn[nH]n3)c2)cc(-c2nn[nH]n2)c1	> 100	–	> 100	> 100	> 100	–	> 100	–	–	> 100	–	> 100	–	–	–	–	–	> 100	–	–
CC1=Nc2ccccc2S/C1=C(/C)NNS(=O)(=O)c1ccc(C)cc1	> 100	> 100	> 100	> 100	> 100	> 100	> 100	–	–	> 100	–	–	–	–	–	–	–	> 100	–	–
COc1ccc(NC(=O)C(=O)c2c(O)c3ccc(O)cc3oc2=O)c([N+](=O)[O-])c1	> 100	> 100	> 100	> 100	> 100	–	> 100	–	–	> 100	–	–	–	–	–	–	–	> 100	–	–
O=C(/C=C/c1cc(Cl)cc(Cl)c1O)c1cccc(O)c1	> 100	46.6	73.3	> 100	> 100	59.8	> 100	–	–	> 100	–	–	–	–	–	–	–	> 100	–	–
O=C(NCCCCCCCCCCCCNC(=O)c1cccc2ccccc12)c1cccc2ccccc12	> 100	> 100	4.73	> 100	> 66.8	> 100	> 61	–	–	> 100	–	–	–	–	–	–	–	> 73.6	–	–
COC[C@@H](N=C1NC(=O)/C(=C/c2ccc3ncccc3c2)S1)c1ccccc1	–	> 25	> 24	> 25	> 25	15.6	> 25	–	8.83	> 25	12.7	> 25	8.88	7.36	18.8	9.35	8.82	> 25	6.7	3.64
